Results as given in PubChem BioAssay AID248 (DTP/NCI, 2004).
Values joined by “and” are separate entries in the source; they are usually repeats but may differ in a detail not shown here. Equal entries are not always repeated. Inconclusive results and toxic doses are left out. Rule as the data show it: active = T/C of 150% or more; inactive = T/C below 125%.

System: L1210 leukemia ip in BDF1 mice, survival T/C
Experiment: NCI In Vivo Anticancer Drug Screen. Data for tumor model L1210 Leukemia (intraperitoneal) in B6D2F1 (BDF1) mice
Details: endpoint: mean survival time, higher = longer survival
Procedure, shortened: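 Mice bearing the transplanted tumor received compound or vehicle. Survival of the treated group was divided by that of the vehicle-treated control group to give the ratio.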

[1] = dose: 100.0 mg/kg/injection, schedule: Q01DX001 (ip), vehicle: saline
[2] = dose: 100.0 mg/kg/injection, schedule: Q04DX003 (ip), vehicle: saline
[3] = dose: 200.0 mg/kg/injection, schedule: Q01DX001 (ip), vehicle: saline
[4] = dose: 100.0 mg/kg/injection, schedule: Q04DX003 (ip), vehicle: Klucel (hydroxypropylcellulose) (HPC)
[5] = dose: 200.0 mg/kg/injection, schedule: Q04DX003 (ip), vehicle: Klucel (hydroxypropylcellulose) (HPC)
[6] = dose: 400.0 mg/kg/injection, schedule: Q04DX003 (ip), vehicle: Klucel (hydroxypropylcellulose) (HPC)
[7] = dose: 100.0 mg/kg/injection, schedule: Q01DX009 (ip), vehicle: saline with Tween-80
[8] = dose: 200.0 mg/kg/injection, schedule: Q01DX009 (ip), vehicle: saline with Tween-80
[9] = dose: 400.0 mg/kg/injection, schedule: Q01DX009 (ip), vehicle: saline with Tween-80
[10] = dose: 100.0 mg/kg/injection, schedule: Q01DX001 (ip), vehicle: saline with Tween-80
[11] = dose: 100.0 mg/kg/injection, schedule: Q04DX003 (ip), vehicle: saline with Tween-80
[12] = dose: 200.0 mg/kg/injection, schedule: Q01DX001 (ip), vehicle: saline with Tween-80
[13] = dose: 200.0 mg/kg/injection, schedule: Q04DX003 (ip), vehicle: saline with Tween-80

Measured: T/C

O=C(C[n+]1ccc2ccccc2c1)c1ccc(-c2ccccc2)cc1
inactive: dose: 25.0 mg/kg/injection, schedule: Q04DX003 (ip), vehicle: saline 98 % of control | dose: 50.0 mg/kg/injection, schedule: Q04DX003 (ip), vehicle: saline 105 % of control | [1] 94 % of control | [2] 100 % of control | [3] 101 % of control

Cc1ccc(S(=O)(=O)N(CC(=O)O)c2c[nH]c(C(=O)O)c2)cc1
inactive: dose: 100.0 mg/kg/injection, schedule: Q01DX009 (ip), vehicle: acetone 92 % of control | dose: 200.0 mg/kg/injection, schedule: Q01DX009 (ip), vehicle: acetone 95 % of control | dose: 400.0 mg/kg/injection, schedule: Q01DX009 (ip), vehicle: acetone 88 % of control

Cc1cccc(OCC(O)CN(Cc2ccsc2)c2ccccn2)c1 (stereo not drawn)
inactive: dose: 100.0 mg/kg/injection, schedule: Q04DX002 (ip), vehicle: Klucel (hydroxypropylcellulose) (HPC) 94 % of control | dose: 200.0 mg/kg/injection, schedule: Q04DX002 (ip), vehicle: Klucel (hydroxypropylcellulose) (HPC) 106 % of control

O=C1S/C(=C/c2ccccc2)C(=O)N1c1ccccc1
inactive: dose: 100.0 mg/kg/injection, schedule: Q01DX001 (ip), vehicle: Klucel (hydroxypropylcellulose) (HPC) 98 % of control | dose: 200.0 mg/kg/injection, schedule: Q01DX001 (ip), vehicle: Klucel (hydroxypropylcellulose) (HPC) 90 % of control | dose: 400.0 mg/kg/injection, schedule: Q01DX001 (ip), vehicle: Klucel (hydroxypropylcellulose) (HPC) 94 % of control

Cc1ccc(/C(=N\N=C(N)N)C2CC2)cc1C
inactive: dose: 15.0 mg/kg/injection, schedule: Q01DX Z (ip), vehicle: methylcellulose (MC) 103 % of control | dose: 30.0 mg/kg/injection, schedule: Q01DX Z (ip), vehicle: methylcellulose (MC) 97 % of control | dose: 30.0 mg/kg/injection, schedule: Q01DX Z (oral), vehicle: methylcellulose (MC) 95 % of control | dose: 60.0 mg/kg/injection, schedule: Q01DX Z (ip), vehicle: methylcellulose (MC) 93 % of control | dose: 60.0 mg/kg/injection, schedule: Q01DX Z (oral), vehicle: methylcellulose (MC) 88 % of control

CC(=O)Oc1ccc(/C=C(\NC(=O)c2ccccc2)C(=O)O)cc1
inactive: [4] 95 % of control | [5] 91 % of control | [6] 91 % of control

COc1ccccc1C(=S)N1CCCCC1
inactive: [2] 97 % of control | dose: 200.0 mg/kg/injection, schedule: Q04DX003 (ip), vehicle: saline 89 % of control | dose: 400.0 mg/kg/injection, schedule: Q04DX003 (ip), vehicle: saline 92 % of control

CCN1CCN(CC)C1(Br)C1(Br)N(CC)CCN1CC
inactive: dose: 75.0 mg/kg/injection, schedule: Q04DX002 (ip), vehicle: saline with Tween-80 91 % of control | dose: 150.0 mg/kg/injection, schedule: Q04DX002 (ip), vehicle: saline with Tween-80 91 % of control | dose: 300.0 mg/kg/injection, schedule: Q04DX002 (ip), vehicle: saline with Tween-80 98 % of control

O=C1OC(=O)C2C1C1(Cl)CC2(Cl)C(Cl)=C1Cl (stereo not drawn)
inactive: dose: 75.0 mg/kg/injection, schedule: Q01DX009 (ip), vehicle: other 101 % of control | dose: 150.0 mg/kg/injection, schedule: Q01DX009 (ip), vehicle: other 88 % of control

CCN(CC)CCSC(CO)c1ccccc1 (stereo not drawn)
inactive: dose: 75.0 mg/kg/injection, schedule: Q04DX003 (ip), vehicle: Klucel (hydroxypropylcellulose) (HPC) 97 % of control | dose: 150.0 mg/kg/injection, schedule: Q04DX003 (ip), vehicle: Klucel (hydroxypropylcellulose) (HPC) 92 % of control

CCC(CCC(C)C1CCC2C3CC=C4CC(OC5OC(CO)C(O)C(O)C5O)CCC4(C)C3CCC12C)C(C)C (stereo not drawn)
inactive: dose: 100.0 mg/kg/injection, schedule: Q01DX Z (ip), vehicle: Klucel (hydroxypropylcellulose) (HPC) 92 % of control | [4] 106 % of control | dose: 200.0 mg/kg/injection, schedule: Q01DX Z (ip), vehicle: Klucel (hydroxypropylcellulose) (HPC) 91 % of control | [5] 104 % of control | dose: 400.0 mg/kg/injection, schedule: Q01DX Z (ip), vehicle: Klucel (hydroxypropylcellulose) (HPC) 91 % of control | [6] 90 % of control

Nc1ncnc2c1ncn2C1OC(CO)C2OP(=O)(O)OC21 (stereo not drawn)
inactive: dose: 100.0 mg/kg/injection, schedule: Q01DX005 (ip), vehicle: saline 95 % of control | dose: 200.0 mg/kg/injection, schedule: Q01DX005 (ip), vehicle: saline 118 % of control

CCOCC(C(=O)OCC)C(=O)OCC
inactive: [7] 111 % of control | [8] 111 % of control | [9] 97 % of control

C[N+](C)(C)/N=C1\CCc2ccccc21
inactive: dose: 50.0 mg/kg/injection, schedule: Q01DX009 (ip), vehicle: saline with Tween-80 100 % of control | dose: 50.0 mg/kg/injection, schedule: Q04DX003 (ip), vehicle: saline with Tween-80 110 % of control | [10] 97 % of control | [7] 97 % of control | [11] 98 % of control | [12] 100 % of control | [8] 103 % of control | [13] 91 % of control

Cn1nnc(C(N)=O)n1
inactive: [1] 93 % of control | [3] 98 % of control | dose: 400.0 mg/kg/injection, schedule: Q01DX001 (ip), vehicle: saline 94 % of control

CCCCCc1cccc(C)n1
inactive: [1] 96 % of control

CC(CNC(=O)OCc1ccccc1)C(=O)O (stereo not drawn)
inactive: [10] 95 % of control | [7] 105 % of control and 117 % of control | dose: 100.0 mg/kg/injection, schedule: Q04DX002 (ip), vehicle: saline with Tween-80 103 % of control | [11] 96 % of control | [12] 93 % of control | [8] 105 % of control and 86 % of control | dose: 200.0 mg/kg/injection, schedule: Q04DX002 (ip), vehicle: saline with Tween-80 100 % of control | [13] 91 % of control | dose: 400.0 mg/kg/injection, schedule: Q01DX001 (ip), vehicle: saline with Tween-80 96 % of control | [9] 94 % of control and 105 % of control | dose: 400.0 mg/kg/injection, schedule: Q04DX002 (ip), vehicle: saline with Tween-80 110 % of control | dose: 400.0 mg/kg/injection, schedule: Q04DX003 (ip), vehicle: saline with Tween-80 95 % of control

COc1ccc(C=Nc2cc(Cl)ccc2O)cc1
inactive: dose: 100.0 mg/kg/injection, schedule: Q01DX001 (ip), vehicle: carboxymethylcellulose (CMC) 89 % of control | dose: 200.0 mg/kg/injection, schedule: Q01DX001 (ip), vehicle: carboxymethylcellulose (CMC) 95 % of control | dose: 400.0 mg/kg/injection, schedule: Q01DX001 (ip), vehicle: carboxymethylcellulose (CMC) 95 % of control

Cc1nnnn1C12CC3CC(CC(C3)C1)C2
inactive: dose: 18.8 mg/kg/injection, schedule: Q01DX001 (ip), vehicle: saline 110 % of control | dose: 37.5 mg/kg/injection, schedule: Q01DX001 (ip), vehicle: saline 100 % of control | dose: 75.0 mg/kg/injection, schedule: Q01DX001 (ip), vehicle: saline 105 % of control

O=C(O)CCn1ccc2ccccc21
inactive: [4] 97 % of control | [5] 97 % of control | [6] 97 % of control

CS(=O)c1ccc([N+](=O)[O-])cc1 (stereo not drawn)
inactive: [4] 98 % of control | [5] 104 % of control | [6] 105 % of control
